Assay results from paper PMC3126777, “Selective anticancer activity of a hexapeptide with sequence homology to a non-kinase domain of Cyclin Dependent Kinase 4” (Molecular Cancer, 2011).
Entries after “also recorded” stand apart in the source; their conditions may differ. Read-outs that look alike come from different tables or passages of the source.

What was measured:
[1] = system: normal diploid human fibroblasts; assay: In-vitro morphological cell viability screen, normal fibroblasts; format: cell-based; details: for effect on normal diploid fibroblasts (in words): 5 mM
Description: (§2) A broad search for possible biological activity associated with the [sequence] peptide sequence was initially instituted by screening human bladder cancer cell lines for potential in-vitro morphological changes, compared to control cultures of normal diploid human fibroblasts at 4-8 passages from primary culture as controls. […] The peptides were dissolved, over a range of concentrations, in Ham's F12 + 10% FCS and introduced in 100 μL quantities to microwells containing 500 RT112 bladder cancer cells, or normal diploid human fibroblasts, in 200 μL of Ham's F12 + 10% FCS plated 24 hours earlier on 96 well plates.

[2] = system: RT112 human bladder cancer and H460 human non-small lung cancer cell lines; assay: Cell killing by cyclic amphiphilic peptides (viability and clonogenic survival); format: cell-based; details: for improvement in selective cancer cell cytotoxicity: cyclic amphiphilic cassettes compared with the earlier PRGPRP peptides; for time at which cell killing reached a maximum: for the majority of cell lines
Source text: Attempts to limit proteolysis and improve cell uptake, by incorporating the hexameric peptide sequence into cyclic peptide cassettes were undertaken, initially without success (Table 3,X-XIII). Linear constructs attaching PRGPRP to a known cell-internalising amphiphilic sequence were also unsuccessful (Table 3,XIV and 3XV). […] Selective toxicity to these cancer cell lines, and not normal fibroblasts, was retained (Table 4).
(§1) All cell lines were from certified sources.

[3] = system: H460 Human Non-small Cell Lung Cancer
[4] = system: RT112 human bladder cancer cells; assay: In-vitro morphological cell viability screen, RT112; format: cell-based; details: for Cell Viability Human Bladder Cancer: RT112, dose 5.0 mM, Ham's F12 + 10% FCS, morphological appearance
Description: as §2

[5] = system: Cdk1 and Cdk4 expression in RT112 cells; assay: Western blotting of Cdk1 and Cdk4 expression, RT112; format: cell-based, human; details: RT112, 5 mM linear end-capped peptide, 0 - 10 days, Western blot
Source text: This co-expression is unaffected by cytocidal doses of cisdiamminedichloroplatinum but can accompany spontaneous cancer cell death. Whether or not Cdk1/Cdk4 co-expression remained constant in cancer cells dying as a result of exposure to PRGPRP was thus examined by Western blotting.
as §1

NCI-H460 cells [6] = assay: Cellular ATP levels (CellTiter-Glo assay); format: cell-based, human; details: H460, chloroquine, 96 hours after initial exposure (Figure 7B)
Description: Cellular ATP levels (CellTiter-Glo assay) Cells were grown, seeded and compound-treated as for the alamar Blue assay. A volume of the CellTiter-Glo reagent equal to the volume of cell culture media was added to the cells. Plates were mixed for 2 min on an orbital shaker to induce cell lysis before the plate was incubated at room temperature for 10 min to stabilize the signal. The luminescent signal was measured and the media only background was subtracted.

NCI-H460 cells [7] = assay: Total cellular protein (sulphorhodamine B assay); format: cell-based, human; details: H460, chloroquine, 96 hours after initial exposure (Figure 7B)
Description: Control medium/alamar blue were removed and 200 μl PBS was added. […] Wells were rinsed with water and allowed to air dry. Cells were then stained in 0.4% SRB solution, before rinsing with 1% acetic acid and air drying. Incorporated dye was solubilised in 10 mM Tris and absorbance measured at 565 nm and 690 nm. Absorbance measurements at 690 nm were subtracted from the 565 nm readings to correct for multi-well plate absorbance.

NCI-H460 cells [8] = assay: Mitochondrial function (alamar blue); format: cell-based, human; details: H460, chloroquine, 96 hours after initial exposure (Figure 7B)
Description: Mitochondrial function (alamar blue) NCI-H460 cells were grown in Ham's F12 media supplemented with 10% FCS. Cells were harvested and added to 96-well plates at densities of 250-1000. Compounds were made up from stock solutions and added directly to cells at the concentrations indicated. Cells were grown with compound for the indicated time at 37°C, 5% CO2, in a humidified atmosphere. Alamar Blue 10% (v/v) was then added and incubated for a further 4 h, and fluorescent product detected using the BMG FLUOstar plate reader. The media only background was subtracted and the data analysed as appropriate.

H460 cells = assay: Autophagy Assay (Cyto-ID Green, flow cytometry); format: cell-based, human; details: H460, 25 μM, positive control, 72 h and 96 h
Description: Autophagy Assay was performed as recommended by the manufacturers' instructions (Enzo ENZ-51031-[…]). Briefly, H460 cells were seeded into 6 well plates at 2.5 × 10^5 and 1 × 10^5 cells/well. Immediately after cell plating, chloroquine or […] were added at the concentrations indicated. Following compound treatment, cells were washed once in PBS and resuspended in x1 Cyto-ID Green autophagy detection reagent and incubated at room temperature for 30 min. Immediately prior to analysis, propidium iodide (PI) solution was added to the cell suspension at a final concentration of 2.5 μg/ml, to assess cell death. Analysis was carried out using FACSCalibur (BD Biosciences). Cyto-ID Green autophagy reagent was measured in the FL-1 channel (530/30 nm bandpass filters with excitation at 488 nm) and PI measured in the FL-3 channel (670 nm longpass filters with excitation at 488 nm).

[9] = system: H460 human non-small cell lung cancer cells; assay: Necrosis assay by Trypan Blue exclusion, H460; format: cell-based; details: H460, 200 μM, 2, 3, 4 and 7 days after plating, triplicate wells
Description: Necrosis Assay Cells were plated in triplicate in 96 well plates at concentrations of 500 cells per well (HT1299, MCF-7) or 1000 cells per well (H460, MRC5-hTERT) in the presence or absence of the relevant compound and assessed by Trypan Blue exclusion At 2,3,4 and 7 days after plating. To assay, cells were trypsinised off, stained with trypan blue in isotonic medium and live and dead cells separately counted visually by haemocytomter. Each data point is the mean of results from triplicate wells (Solid lines - Live cells, Broken lines - Dead Cells; Blue - Control, Red - THR53 200 μM).

[10] = dose 5.0 mM, Ham's F12 + 10% FCS, morphological appearance

Compound	Cell Viability Normal Diploid Fibroblasts ([1]; dose 200 μM)	Cell Viability Human Non-small Cell Lung Cancer ([3]; H460, dose 200 μM)	Cell Viability Normal Diploid Fibroblasts [1, 10]	Cell Viability Human Bladder Cancer [4]	other results
Cyc-[PRGPRPVALKLALKLAL] (head to tail) [THR54]					Cell Viability Normal Diploid Fibroblasts ([1]; dose 100 μM): + + +; improvement in selective cancer cell cytotoxicity [2]: fifty- to a hundred-fold improvement; time at which cell killing reached a maximum [2]: ≤ 4 days; Cell Viability Human Non-small Cell Lung Cancer ([3]; H460, dose 100 μM): _ _ _
Cyc-GGGGGGPRGPRPGGGGGG] (head to tail) [XII]	+ + +	+ + +			
RGPRP [IV, linear N'-capped synthetic pentapeptide amide RGPRP]			+ + +		toxicity to RT112 human bladder cancer cells (in words) ([4]; 5 mM): greater selective toxicity; effect on normal diploid fibroblasts (in words) [1]: sparing normal diploid fibroblasts
PRGPEP [VIII, hexapeptide with arginine substituted by glutamic acid]			+ + +	+ + +	toxicity to RT112 human bladder cancer cells (in words) ([4]; 5 mM): lacked cytotoxic activity; effect on normal diploid fibroblasts (in words) [1]: no effect
Cyc-[PRGPRPvalklalklal] (head to tail) [THR79]					Cell Viability Normal Diploid Fibroblasts ([1]; dose 50 μM): + + +; improvement in selective cancer cell cytotoxicity [2]: fifty- to a hundred-fold improvement; time at which cell killing reached a maximum [2]: ≤ 4 days; Cell Viability Human Non-small Cell Lung Cancer ([3]; H460, dose 50 μM): _ _ _
Cyc-[AAAGGGPRGPRPGGGAAA] (head to tail) [X]	+ + +	+ + +			
Linear FPPRGPRPVKLALKLALK [XIV]	+ + +	+ + +			
Cyc-[GGGGGGPRGPRPGGGGGG] (head to tail) [XI]	+ + +	+ + +			
RGPR [V, shorter linear peptide RGPR]			+ + +	+ + +	toxicity to RT112 human bladder cancer cells (in words) ([4]; 5 mM): inactive
PRGPR [III, linear N'-capped synthetic peptide amide PRGPR]			+ + +	- - -	
Linear PRGPRPVALKLALKLAL [XV]	+ + +	+ + +			
PRRPGP [VI, linear end-capped hexapeptide PRRPGP, one arginine transposed]			+ + +	+ + +	toxicity to RT112 human bladder cancer cells (in words) ([4]; 5 mM): markedly diminishes RT112 human bladder cancer cell killing; Cdk1 expression compared to Cdk4 [5]: not PRRPGP
PEGPEP [IX, hexapeptide with both arginines substituted by glutamic acid]			+ + +	+ + +	
Cyc-[AAGPGGPRGPRPGGPGAA] (head to tail) [XIII]	+ + +	+ + +			
Cyc-[PR(Me)GPRPVALKLALKLAL] (head to tail) [XX]		+ +/-			
Ac-PRGPRP-NH2 [THR1, linear N'-capped PRGPRP-amide hexapeptide]			+ + + + +	- - -	toxicity to RT112 human bladder cancer cells (in words) ([4]; 5 mM): greater selective toxicity; also recorded: complete necrosis; effect on normal diploid fibroblasts (in words) [1]: stimulates normal fibroblast growth; also recorded: increases the confluent cell density; Cdk1 expression compared to Cdk4 [5]: progressive rise
CCN(CC)CCCC(C)Nc1ccnc2cc(Cl)ccc12 (centres unmarked) [Chloroquine, reference compound]					ATP levels (NCI-H460 cells [6]): ubiquitous effect; total cellular protein (NCI-H460 cells [7]): ubiquitous effect; mitochondrial oxidation/reduction (NCI-H460 cells [8]): ubiquitous effect; autophagy, Cyto-ID Green FL-1 peak (H460 cells): increase in autophagy
Cyc-[FPPRRPGPVKLALKLALK] (head to tail) [THR53C]	+ + +	+ + +			necrosis detected by trypan blue uptake [9]: not with THR53C
PEGPRP [VII, hexapeptide with arginine substituted by glutamic acid]			+ + +	+ + +	toxicity to RT112 human bladder cancer cells (in words) ([4]; 5 mM): lacked cytotoxic activity; effect on normal diploid fibroblasts (in words) [1]: no effect
FPPRGPRPVQ [I]					toxicity to RT112 human bladder cancer cells (in words) ([4]; 1.0 mM): selectively toxic; effect on normal fibroblasts (in words) ([1]; 1.0 mM): partial sparing; Cell Viability Normal Diploid Fibroblasts ([1]; dose 1.0 mM, Ham's F12 + 10% FCS, morphological appearance): + +/-
Cyc-[PRGPR(Me)PVALKLALKLAL] (head to tail) [XXI]		++ +			
